Reference: patent US4272437A, “Antibacterial agents, and 4-thio azetidinone intermediates” (priority 1979, dated 1981)
In brackets after ≈: the same amount, converted by molar mass. Where two headings read alike, the source gives them in different places.

Assays:
E. coli A-15119 = assay: MIC, tube dilution, Escherichia coli A15119; assay type: cell-based; settings: Escherichia coli, A15119, E. coli A15119; overnight 37° C.; read-out: Minimum Inhibitory Concentration (M.I.C.)
From the text: (§1) Representative compounds of the present invention were subjected to in vitro antibiotic screening against a variety of microorganisms.

Pr. morganii A-15153 = assay: MIC, tube dilution, Proteus morganii A15153; assay type: cell-based; settings: Morganella morganii, A15153, Proteus morganii A15153; overnight 37° C.; read-out: Minimum Inhibitory Concentration (M.I.C.)
From the text: as §1

Pr. vulgaris A-9716 = assay: MIC, tube dilution, Proteus vulgaris / Proteus mirabilis A9716; assay type: cell-based, Proteus vulgaris (name changed to Proteus mirabilis); settings: Proteus vulgaris, overnight 37° C.
From the text: as §1

Str. faecalis A-20688 = assay: MIC, tube dilution, Streptococcus faecalis A20688; assay type: cell-based; settings: Enterococcus faecalis, A20688, Str. faecalis A20688; overnight 37° C.; read-out: Minimum Inhibitory Concentration (M.I.C.)
From the text: as §1

[1] = system: Staph. aureus (Meth-Res) A-15097; assay: MIC, tube dilution, Staphylococcus aureus A15097 (Meth-Res); assay type: cell-based; settings: Staphylococcus aureus, overnight 37° C.
From the text: as §1

Ps. aeruginosa A-9843A = assay: MIC, tube dilution, Pseudomonas aeruginosa A9843A; assay type: cell-based; settings: Pseudomonas aeruginosa, A9843A, read-out: Minimum Inhibitory Concentration (M.I.C.), Pseudomonas aeruginosa A9843A; overnight 37° C.
From the text: as §1

Str. pneumoniae A-9585 = assay: MIC, tube dilution, Streptococcus pneumoniae A9585; assay type: cell-based; settings: Streptococcus pneumoniae, A9585, Str. pneumoniae A9585; overnight 37° C., Nutrient Broth; read-out: Minimum Inhibitory Concentration (M.I.C.)
From the text: as §1

Ser. marcescens A-20019 = assay: MIC, tube dilution, Serratia marcescens A20019; assay type: cell-based; settings: Serratia marcescens, A20019, Serratia marcescens A20019; overnight 37° C.; read-out: Minimum Inhibitory Concentration (M.I.C.)
From the text: as §1

K. pneumoniae A-15130 = assay: MIC, tube dilution, Klebsiella pneumoniae A15130; assay type: cell-based; settings: Klebsiella pneumoniae, A15130, K. pneumoniae A15130; overnight 37° C.; read-out: Minimum Inhibitory Concentration (M.I.C.)
From the text: as §1

Staph. aureus A-9537 = assay: MIC, tube dilution, Staphylococcus aureus A9537; assay type: cell-based; settings: Staphylococcus aureus, A9537, Staph. aureus A9537; overnight 37° C., Nutrient Broth; read-out: Minimum Inhibitory Concentration (M.I.C.)
From the text: as §1

[2] = system: Klebsiella species A20468; assay: MIC, tube dilution, Klebsiella species A20468; assay type: cell-based; settings: Klebsiella species (K. pneumoniae) A20468; overnight 37° C.; read-out: Minimum Inhibitory Concentration (M.I.C.)
From the text: as §1

Ent. cloacae A-9656 = assay: MIC, tube dilution, Enterobacter cloacae A9656; assay type: cell-based; settings: overnight 37° C., read-out: Minimum Inhibitory Concentration (M.I.C.)
From the text: as §1

Ent. cloacae A-9659 = assay: MIC, tube dilution, Enterobacter cloacae A9659; assay type: cell-based; settings: Enterobacter cloacae, A9659, Enterobacter cloacae A9659; overnight 37° C.; read-out: Minimum Inhibitory Concentration (M.I.C.)
From the text: as §1

E. coli A-20341-1 = assay: MIC, tube dilution, Escherichia coli A20341-1; assay type: cell-based; settings: Escherichia coli, A203411; E. coli A20341-1; overnight 37° C.; read-out: Minimum Inhibitory Concentration (M.I.C.)
From the text: as §1

[3] = system: Providencia stuartii A21205; assay: MIC, tube dilution, Providencia stuartii (Pr. rettgeri) A21205; assay type: cell-based; settings: Providencia stuartii
From the text: as §1

[4] = system: Staph. aureus (Pen-Res) A-9606; assay: MIC, tube dilution, Staphylococcus aureus A9606 (Pen-Res); assay type: cell-based; settings: Staphylococcus aureus, overnight 37° C.
From the text: as §1

Str. pyogenes A-9604 = assay: MIC, tube dilution, Streptococcus pyogenes A9604; assay type: cell-based; settings: Streptococcus pyogenes, A9604, Str. pyogenes A9604; overnight 37° C., Nutrient Broth; read-out: Minimum Inhibitory Concentration (M.I.C.)
From the text: as §1

[5] = system: Staph. aureus A-9537 and 50% serum; assay: MIC, tube dilution, Staph. aureus A9537 + 50% serum; assay type: cell-based, Staphylococcus aureus; settings: Staphylococcus aureus, overnight 37° C., read-out: Minimum Inhibitory Concentration (M.I.C.)
From the text: as §1

Pr. mirabilis A-9900 = assay: MIC, tube dilution, Proteus mirabilis A9900; assay type: cell-based; settings: Proteus mirabilis, A9900, Proteus mirabilis A9900; overnight 37° C.; read-out: Minimum Inhibitory Concentration (M.I.C.)
From the text: as §1

Ps. aeruginosa A-21213 = assay: MIC, tube dilution, Pseudomonas aeruginosa A21213; assay type: cell-based; settings: Pseudomonas aeruginosa A21213; overnight 37° C.; read-out: Minimum Inhibitory Concentration (M.I.C.)
From the text: as §1

[6] = A9716, Proteus vulgaris / Proteus mirabilis A9716, read-out: Minimum Inhibitory Concentration (M.I.C.)
[7] = read-out: Minimum Inhibitory Concentration (M.I.C.), Staph. aureus A15097 (Meth-Res)
[8] = A21205, Providencia stuartii (Pr. rettgeri) A21205, overnight 37° C., read-out: Minimum Inhibitory Concentration (M.I.C.)
[9] = Staph. aureus A9606 (Pen-Res), read-out: Minimum Inhibitory Concentration (M.I.C.)
[10] = Enterobacter cloacae, A9656, Enterobacter cloacae A9656

Row | SMILES | MIC (E. coli A-15119) | MIC (Pr. morganii A-15153) | MIC (Pr. vulgaris A-9716; [6]) | MIC (Str. faecalis A-20688) | MIC [1, 7] | MIC (Ps. aeruginosa A-9843A) | MIC (Str. pneumoniae A-9585) | MIC (Ser. marcescens A-20019) | MIC (K. pneumoniae A-15130) | MIC (Staph. aureus A-9537) | MIC [2] | MIC (Ent. cloacae A-9656; Enterobacter cloacae A9656) | MIC (Ent. cloacae A-9659) | MIC (E. coli A-20341-1) | MIC [3, 8] | MIC [4, 9] | MIC (Str. pyogenes A-9604) | MIC [5] | MIC (Pr. mirabilis A-9900) | MIC (Ps. aeruginosa A-21213) | other results
1 | O=C(O)C1=C(CCCCN2C(=O)c3ccccc3C2=O)SC2CC(=O)N12 (centres unmarked) [Example 43, 2-(4'-Phthalimido-1'-butyl)penem-3-carboxylic Acid] | 63 µg/mL (≈ 169 µM) | 32 µg/mL (≈ 85.9 µM) | 16 µg/mL (≈ 43 µM) | 16 µg/mL (≈ 43 µM) | > 125 µg/mL | > 125 µg/mL | 0.016 µg/mL (≈ 0.043 µM) | 16 µg/mL (≈ 43 µM) | > 125 µg/mL | 0.03 µg/mL (≈ 0.0806 µM) | > 125 µg/mL | 125 µg/mL (≈ 336 µM) | > 125 µg/mL | > 125 µg/mL | 63 µg/mL (≈ 169 µM) | 16 µg/mL (≈ 43 µM) | 0.25 µg/mL (≈ 0.671 µM) | 63 µg/mL | 32 µg/mL (≈ 85.9 µM) | > 125 µg/mL | 
2 | COCC1=C(C(=O)[O-])N2C(=O)C[C@H]2S1.[Na+] [Preparation 6, Sodium 2-Methoxymethylpenem-3-carboxylate] | 2 µg/mL | 4 µg/mL |  | 32 µg/mL | > 125 µg/mL | > 125 µg/mL | 0.06 µg/mL | 4 µg/mL | 8 µg/mL | 0.5 µg/mL | > 125 µg/mL | 8 µg/mL | 4 µg/mL | 125 µg/mL |  |  | 0.25 µg/mL | 32 µg/mL | 2 µg/mL | > 125 µg/mL | MIC (Pr. vulgaris A-9716; A9716, read-out: Minimum Inhibitory Concentration (M.I.C.), Proteus vulgaris / Proteus mirabilis A9716): 2 µg/mL; MIC ([3]; A21205, read-out: Minimum Inhibitory Concentration (M.I.C.)): 2 µg/mL; MIC ([4]; read-out: Minimum Inhibitory Concentration (M.I.C.), Staph. aureus A9606 (Pen-Res)): 2 µg/mL
3 | O=C(O)C1=C(Cc2cccs2)SC2CC(=O)N12 (centres unmarked) [Preparation 8, 2-(2'-Thienyl)methyl-penem-3-carboxylic Acid] | 1 µg/mL (≈ 3.74 µM) | 1 µg/mL (≈ 3.74 µM) | 1 µg/mL (≈ 3.74 µM) | 32 µg/mL (≈ 120 µM) | > 125 µg/mL | > 125 µg/mL | 0.016 µg/mL (≈ 0.0599 µM) | 32 µg/mL (≈ 120 µM) | 32 µg/mL (≈ 120 µM) | < 0.008 µg/mL | > 125 µg/mL |  | 16 µg/mL (≈ 59.9 µM) | > 125 µg/mL | 1 µg/mL (≈ 3.74 µM) | 4 µg/mL (≈ 15 µM) | 0.03 µg/mL (≈ 0.112 µM) | > 63 µg/mL | 0.5 µg/mL (≈ 1.87 µM) | > 125 µg/mL | MIC (Ent. cloacae A-9656; [10]): 16 µg/mL (≈ 59.9 µM)
4 | CCC1=C(C(=O)O)N2C(=O)C[C@H]2S1 [Preparation 10, 2-Ethylpenem-3-carboxylic Acid] | 4 µg/mL (≈ 20.1 µM) | 8 µg/mL (≈ 40.2 µM) | 4 µg/mL (≈ 20.1 µM) | 32 µg/mL (≈ 161 µM) |  | > 125 µg/mL | 0.03 µg/mL (≈ 0.151 µM) | 4 µg/mL (≈ 20.1 µM) | 8 µg/mL (≈ 40.2 µM) | 0.13 µg/mL (≈ 0.653 µM) | > 125 µg/mL |  | 16 µg/mL (≈ 80.3 µM) | 125 µg/mL (≈ 627 µM) | 4 µg/mL (≈ 20.1 µM) | 0.5 µg/mL (≈ 2.51 µM) | 0.5 µg/mL (≈ 2.51 µM) | 16 µg/mL | 4 µg/mL (≈ 20.1 µM) | 125 µg/mL (≈ 627 µM) | MIC ([1]; Staph. aureus A15097 (Meth-Res), read-out: Minimum Inhibitory Concentration (M.I.C.)): 0.5 µg/mL (≈ 2.51 µM); MIC (Ent. cloacae A-9656; [10]): 16 µg/mL (≈ 80.3 µM)
